Results as given in ChEMBL document CHEMBL1201862, “PubChem BioAssay data set” (2004).
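Assay format: 96-well plates, 48-hour exposure. Abbreviation: GI50, concentration required for 50% inhibition of growth.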 Activity calls are given as the source filed them. No stated cut-off is given here; in the data, active = GI50 up to about 1.1 µM and inactive = higher.

Key:
Test in all cases: inhibition of tumour cell growth, NCI panel, 48 h
[1] = test system: HOP-18
[2] = test system: UACC-257
[3] = test system: HL-60
[4] = test system: NCI-H23
[5] = test system: NCI-H522
[6] = test system: SF-268
[7] = test system: RXF 393
[8] = test system: UO-31
[9] = test system: U-251
[10] = test system: SNB-78
[11] = test system: KM-20L2
[12] = test system: MCF7
[13] = test system: LOX IMVI
[14] = test system: A549
[15] = test system: OVCAR-3
[16] = test system: OVCAR-8
[17] = test system: UACC-62
[18] = test system: HCT-116
[19] = test system: K562
[20] = test system: DLD-1
[21] = test system: SK-OV-3
[22] = test system: CCRF-CEM
[23] = test system: KM12
[24] = test system: NCI-H226
[25] = test system: SF-295
[26] = test system: COLO 205
[27] = test system: HOP-92
[28] = test system: MOLT-4
[29] = test system: A498
[30] = test system: XF498
[31] = test system: HCT-15
[32] = test system: RPMI-8226
[33] = test system: SNB-75
[34] = test system: DMS-114
[35] = test system: SK-MEL-28
[36] = test system: DMS-273
[37] = test system: HCC 2998
[38] = test system: SN12C
[39] = test system: OVCAR-5
[40] = test system: NCI-H460
[41] = test system: M19-MEL
[42] = test system: HT-29
[43] = test system: SF-539
[44] = test system: SK-MEL-5
[45] = test system: OVCAR-4
[46] = test system: SW-620
[47] = test system: NCI/ADR-RES
[48] = test system: HOP-62
[49] = test system: Malme-3M
[50] = test system: IGROV-1
[51] = test system: SK-MEL-2
[52] = test system: EKVX
[53] = test system: SNB-19
[54] = test system: M14
[55] = test system: TK-10
[56] = test system: LXFL 529
[57] = test system: ACHN
[58] = test system: CAKI-1
[59] = test system: 786-0

## COc1cc(-c2ccc(/N=N/c3ccc4c(S(=O)(=O)O)cc(S(=O)(=O)O)c(N)c4c3O)c(OC)c2)ccc1/N=N/c1ccc2c(S(=O)(=O)O)cc(S(=O)(=O)O)c(N)c2c1O
[1]
  GI50: > 44.3 µM (inactive)
[2]
  GI50: > 100 µM (inactive)
[3]
  GI50: > 41.6 µM (inactive)
[4]
  GI50: > 100 µM (inactive)
[5]
  GI50: > 100 µM (inactive)
[6]
  GI50: > 100 µM (inactive)
[7]
  GI50: > 100 µM (inactive)
[8]
  GI50: > 100 µM (inactive)
[9]
  GI50: > 100 µM (inactive)
[10]
  GI50: > 100 µM (inactive)
[11]
  GI50: > 100 µM (inactive)
[12]
  GI50: > 100 µM (inactive)
[13]
  GI50: > 100 µM (inactive)
[14]
  GI50: > 100 µM (inactive)
[15]
  GI50: > 100 µM (inactive)
[16]
  GI50: > 100 µM (inactive)
[17]
  GI50: > 100 µM (inactive)
[18]
  GI50: > 100 µM (inactive)
[19]
  GI50: > 100 µM (inactive)
[20]
  GI50: > 100 µM (inactive)
[21]
  GI50: > 100 µM (inactive)
[22]
  GI50: > 100 µM (inactive)
[23]
  GI50: > 100 µM (inactive)
[24]
  GI50: > 87.5 µM (inactive)
[25]
  GI50: > 100 µM (inactive)
[26]
  GI50: > 100 µM (inactive)
[27]
  GI50: > 100 µM (inactive)
[28]
  GI50: > 100 µM (inactive)
[29]
  GI50: > 100 µM (inactive)
[30]
  GI50: 36.1 µM (inactive)
[31]
  GI50: > 100 µM
[32]
  GI50: > 100 µM (inactive)
[33]
  GI50: > 100 µM (inactive)
[34]
  GI50: > 100 µM (inactive)
[35]
  GI50: > 100 µM (inactive)
[36]
  GI50: > 100 µM (inactive)
[37]
  GI50: > 100 µM (inactive)
[38]
  GI50: > 100 µM (inactive)
[39]
  GI50: > 91.2 µM (inactive)
[40]
  GI50: > 100 µM (inactive)
[41]
  GI50: > 100 µM (inactive)
[42]
  GI50: > 100 µM (inactive)
[43]
  GI50: > 100 µM (inactive)
[44]
  GI50: > 100 µM (inactive)
[45]
  GI50: > 100 µM (inactive)
[46]
  GI50: > 100 µM (inactive)
[47]
  GI50: > 100 µM (inactive)
[48]
  GI50: > 100 µM (inactive)
[49]
  GI50: > 100 µM (inactive)
[50]
  GI50: > 100 µM (inactive)
[51]
  GI50: > 100 µM (inactive)
[52]
  GI50: > 100 µM (inactive)
[53]
  GI50: > 100 µM (inactive)

## Cc1ccc(NC(=O)C(=O)C(C(=O)c2ccc3ccccc3c2)C2OC(=O)c3ccccc32)cc1C (configuration not stated)
[1]
  GI50: 0.743 µM (active)
[2]
  GI50: 10 µM (inactive)
[3]
  GI50: 8.87 µM (inactive)
[4]
  GI50: 4.79 µM (inactive)
[5]
  GI50: 3.03 µM (inactive)
[6]
  GI50: 7.41 µM (inactive)
[8]
  GI50: 11.9 µM (inactive)
[9]
  GI50: 3.92 µM (inactive)
[11]
  GI50: 35.2 µM (inactive)
[54]
  GI50: 15.6 µM (inactive)
[13]
  GI50: 14.4 µM (inactive)
[14]
  GI50: 16.5 µM (inactive)
[55]
  GI50: 34.8 µM (inactive)
[15]
  GI50: 10.9 µM (inactive)
[16]
  GI50: 12.8 µM (inactive)
[17]
  GI50: 12.4 µM (inactive)
[56]
  GI50: 8.36 µM (inactive)
[18]
  GI50: 11.8 µM (inactive)
[19]
  GI50: 13.8 µM (inactive)
[20]
  GI50: 17.7 µM (inactive)
[21]
  GI50: 26.9 µM (inactive)
[22]
  GI50: 5.2 µM (inactive)
[23]
  GI50: 19.5 µM (inactive)
[24]
  GI50: 3.14 µM (inactive)
[26]
  GI50: 16.6 µM (inactive)
[27]
  GI50: 14 µM (inactive)
[28]
  GI50: 3.3 µM (inactive)
[29]
  GI50: 10.4 µM (inactive)
[57]
  GI50: 32 µM (inactive)
[30]
  GI50: 3.29 µM (inactive)
[31]
  GI50: 5.02 µM
[32]
  GI50: 4.7 µM (inactive)
[33]
  GI50: 2.98 µM (inactive)
[34]
  GI50: 9.35 µM (inactive)
[35]
  GI50: 10.3 µM (inactive)
[36]
  GI50: 5.87 µM (inactive)
[37]
  GI50: 2.77 µM (inactive)
[38]
  GI50: 18.9 µM (inactive)
[58]
  GI50: 8.57 µM (inactive)
[39]
  GI50: 23.9 µM (inactive)
[40]
  GI50: 5.74 µM (inactive)
[41]
  GI50: 6.34 µM (inactive)
[42]
  GI50: 33 µM (inactive)
[43]
  GI50: 3.02 µM (inactive)
[44]
  GI50: 15.2 µM (inactive)
[45]
  GI50: 13.1 µM (inactive)
[46]
  GI50: 14.7 µM (inactive)
[48]
  GI50: 14.7 µM (inactive)
[49]
  GI50: 12.7 µM (inactive)
[50]
  GI50: 18.7 µM (inactive)
[51]
  GI50: 15.5 µM (inactive)
[52]
  GI50: 63.5 µM (inactive)
[59]
  GI50: 10 µM (inactive)
[53]
  GI50: 5.31 µM (inactive)
